# Results taken from patent US11440932B2, “Surfactant compounds-clips for extraction and stabilization in solution of membrane proteins” (CENTRE NATIONAL DE LA RECHERCHE SCIENTIFIQUE, priority 2017, dated 2022).
# Legend:
# [1] = Critical micelle concentration (CMC) by DPH fluorescence; type: physicochemical; details: for CMC: 50 mM tris-HCl, pH 8.0
# BmrA = biological target: T1, BmrA (Bacillus subtilis, UniProt O06967); experiment: Extraction of BmrA from membranes (SDS-PAGE of supernatant); parameters: species or system bacterial; overexpressed in E. coli C41DE3; details: detergent 10 g/l unless indicated otherwise; 2 h at 4° C.
# T1 construct: His tag; made in house; host or cells: E. coli C41(DE3)
# T1 sequence (O06967 whole entry): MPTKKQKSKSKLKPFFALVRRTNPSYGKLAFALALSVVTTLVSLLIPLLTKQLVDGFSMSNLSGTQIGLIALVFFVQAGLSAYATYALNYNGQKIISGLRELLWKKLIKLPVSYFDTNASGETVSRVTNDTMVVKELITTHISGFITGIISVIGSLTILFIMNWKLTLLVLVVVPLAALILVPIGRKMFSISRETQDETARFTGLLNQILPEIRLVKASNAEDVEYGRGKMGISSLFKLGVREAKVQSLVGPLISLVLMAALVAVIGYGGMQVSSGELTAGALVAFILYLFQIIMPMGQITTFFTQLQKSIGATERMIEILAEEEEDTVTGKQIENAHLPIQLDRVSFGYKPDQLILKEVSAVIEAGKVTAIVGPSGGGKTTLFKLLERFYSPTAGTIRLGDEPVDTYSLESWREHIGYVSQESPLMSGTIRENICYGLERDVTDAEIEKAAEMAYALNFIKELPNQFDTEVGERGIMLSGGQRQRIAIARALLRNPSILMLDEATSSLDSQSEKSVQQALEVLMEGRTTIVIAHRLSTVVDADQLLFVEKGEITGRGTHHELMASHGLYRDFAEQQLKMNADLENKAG
# How it was run: (§1)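 E. coli C41(DE3) membranes overexpressing BmrA (~25% of protein) or AcrB (~20%), at 2 g/l protein in 20 mM Tris-HCl pH 8.0, 100 mM NaCl, 15% glycerol with protease inhibitors, treated with detergent at 10 g/l unless stated otherwise for 2 h at 4° C. After 100 000×g centrifugation, 20 μg supernatant protein run on 10% SDS-PAGE, Coomassie-stained.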
# AcrB = biological target: T2, AcrB (Escherichia coli, UniProt P31224); experiment: Extraction of AcrB from membranes (SDS-PAGE of supernatant); parameters: species or system bacterial; same expression system (E. coli C41DE3); details: detergent 10 g/l unless indicated otherwise; 2 h at 4° C.
# T2 construct: made in house; host or cells: E. coli C41(DE3)
# T2 sequence (P31224 whole entry): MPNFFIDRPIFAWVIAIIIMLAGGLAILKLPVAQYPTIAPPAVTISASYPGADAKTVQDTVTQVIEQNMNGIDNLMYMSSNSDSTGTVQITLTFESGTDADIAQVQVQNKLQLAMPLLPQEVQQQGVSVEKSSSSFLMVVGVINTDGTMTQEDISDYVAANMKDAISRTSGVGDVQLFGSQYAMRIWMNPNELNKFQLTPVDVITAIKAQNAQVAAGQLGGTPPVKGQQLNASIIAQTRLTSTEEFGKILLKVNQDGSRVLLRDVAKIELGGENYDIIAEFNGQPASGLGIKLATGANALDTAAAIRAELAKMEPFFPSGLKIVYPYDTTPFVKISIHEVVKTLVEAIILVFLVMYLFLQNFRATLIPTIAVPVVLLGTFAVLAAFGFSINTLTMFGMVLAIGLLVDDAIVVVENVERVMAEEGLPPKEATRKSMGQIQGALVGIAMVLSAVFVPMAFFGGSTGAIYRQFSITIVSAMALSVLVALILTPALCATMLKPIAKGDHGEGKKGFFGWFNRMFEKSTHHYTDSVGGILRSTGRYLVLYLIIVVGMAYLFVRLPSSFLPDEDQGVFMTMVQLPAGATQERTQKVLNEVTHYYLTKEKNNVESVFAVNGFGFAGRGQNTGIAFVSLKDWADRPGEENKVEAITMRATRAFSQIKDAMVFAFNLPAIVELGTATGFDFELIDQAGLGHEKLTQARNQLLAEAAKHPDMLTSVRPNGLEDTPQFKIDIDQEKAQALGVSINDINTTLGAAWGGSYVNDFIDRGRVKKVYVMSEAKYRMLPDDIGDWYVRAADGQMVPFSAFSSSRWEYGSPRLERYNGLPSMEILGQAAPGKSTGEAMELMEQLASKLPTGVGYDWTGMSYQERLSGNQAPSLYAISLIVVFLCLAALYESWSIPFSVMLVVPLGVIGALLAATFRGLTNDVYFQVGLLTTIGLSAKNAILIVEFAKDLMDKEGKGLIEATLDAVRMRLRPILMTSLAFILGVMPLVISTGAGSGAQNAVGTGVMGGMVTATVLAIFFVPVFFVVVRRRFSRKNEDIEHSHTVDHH
# How it was run: as §1
# [2] = Diameter of micelles by dynamic light scattering (DLS); type: physicochemical; details: for Ø, nm: estimated micelle diameter by DLS, 30 mM tris-HCl, pH 8.0
# Method: FIG. 5 depicts the dynamic light scattering (DLS) of clips, in intensity (%, column A on the left) and in number (%, column B on the right), as a function of the […] (nm). The estimated diameters are indicated on each panel (column A). Columns A and B, from top to bottom: compound 3.7c (10 mM, 5×CMC), compound 3.7d (10 mM, 5×CMC), compound 3.7e (2 mM, […]), compound 3.7f (10 mM, 500×CMC), compound 3.7h (1 mM, 100×CMC), compound 3.7j (2 mM, 100×CMC), compound 3.9a (1 mM, 50×CMC).
# Another physicochemical parameter of the micelles of detergents is their diameter, assuming that they are spherical. This dimension is obtained by the light scattering (DLS) technique.
# Procedure. The molecules of the invention tested were prepared in a range of concentrations extending from 0.1 to 1000×CMC in 30 mM tris-HCl, pH 8.0 and neutralized at this pH. The solutions are filtered on 0.22 μm. The measurement is carried out on 100 μl, in triplicate on a Zetasizer Nano-S from Malvern Instruments.
SMILES,CMC [1] [mM],extraction of BmrA (BmrA),extraction of AcrB (AcrB),"Ø, nm [2] [nm]","CMC (breakage in the slope of DPH fluorescence, FIG. 4) ([1]; triplicates) [mM]",estimated diameter ([2]; DLS) [nm]
CCCCCCCCCCCC(=O)N[C@@H](COCc1cn(CCO[C@@H]2OC(CO)[C@@H](O)C(O)C2O)nn1)C(=O)N[C@H](CCC(=O)O)C(=O)O (stereo partly shown) [Compound 3.7b],1.5,non-extracting,do not extract,–,–,–
CCCCCCCCCCCCCC(=O)N[C@@H](COCc1cn(CCO[C@@H]2OC(CO)[C@@H](O)C(O)C2O)nn1)C(=O)N[C@H](CCC(=O)O)C(=O)O (stereo partly shown) [Compound 3.7c],1,extracting,extracting,3.8,–,–
CCCCCCCCCCCCCC(=O)N[C@@H](COCc1cn(CCO[C@@H]2OC(CO)[C@@H](O[C@H]3OC(CO)[C@@H](O)C(O)C3O)C(O)C2O)nn1)C(=O)N[C@H](CCC(=O)O)C(=O)O (stereo partly shown) [Compound 3.7e],2,non-extracting,extracting,3.5,2,–
CCCCCCCCCCCCCC(=O)N[C@@H](COCc1cn(CCOCCOCCOCCOCCOCCOC)nn1)C(=O)N[C@H](CCC(=O)O)C(=O)O [Compound 3.7g],1,extracting,–,–,–,–
CCCCCCCCCCCCC(CCCCCCCCCCCC)C(=O)N[C@@H](COCc1cn(CCO[C@@H]2OC(CO)[C@@H](O)C(O)C2O)nn1)C(=O)N[C@H](CCC(=O)O)C(=O)O (stereo partly shown) [Compound 3.7j],0.02,partially extracting,extracting,60,–,~60
CCCCCCCCCCCCCC(=O)N[C@@H](COCc1cn(CCO[C@@H]2OC(CO)[C@@H](O)C(O)C2O)nn1)C(=O)N[C@@H](CCC(=O)O)C(=O)NCC(=O)O (stereo partly shown) [Compound 3.7l],1,extracting,extracting,–,–,–
